Read-outs that look alike come from different tables or passages of the source.
Target: T1, SIRT1 (Homo sapiens, UniProt Q96EB6)
T1 sequence (Q96EB6 1-747): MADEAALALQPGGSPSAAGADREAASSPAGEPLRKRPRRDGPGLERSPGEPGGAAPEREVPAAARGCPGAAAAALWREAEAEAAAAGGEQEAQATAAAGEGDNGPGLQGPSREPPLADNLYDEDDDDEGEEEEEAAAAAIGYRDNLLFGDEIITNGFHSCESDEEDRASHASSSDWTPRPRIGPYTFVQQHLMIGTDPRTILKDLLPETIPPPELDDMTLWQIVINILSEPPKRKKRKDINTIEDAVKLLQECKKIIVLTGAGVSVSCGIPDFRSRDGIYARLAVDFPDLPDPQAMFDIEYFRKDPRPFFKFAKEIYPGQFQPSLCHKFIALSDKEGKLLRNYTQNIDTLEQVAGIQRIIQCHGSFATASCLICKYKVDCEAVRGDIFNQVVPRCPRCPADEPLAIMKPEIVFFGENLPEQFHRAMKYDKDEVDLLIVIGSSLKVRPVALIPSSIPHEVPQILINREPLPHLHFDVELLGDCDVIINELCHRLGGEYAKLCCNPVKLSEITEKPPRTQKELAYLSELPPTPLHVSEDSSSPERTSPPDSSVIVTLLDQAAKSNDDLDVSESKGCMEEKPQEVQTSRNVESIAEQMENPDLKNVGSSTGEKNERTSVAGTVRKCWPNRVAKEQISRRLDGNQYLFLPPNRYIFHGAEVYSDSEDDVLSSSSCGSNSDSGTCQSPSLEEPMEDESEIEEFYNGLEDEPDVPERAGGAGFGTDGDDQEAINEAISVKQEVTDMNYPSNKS
Assay: Trp mass spectrometry assay of SIRT1 activation
Type: biochemical
Details: for TRP Activity (EC1.5): EC1.5 = concentration that results in 150% activation of SIRT1; for Emax: read-out: TRP MAX RESP (percent maximum fold activation)
Outline: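 N-terminal His-tagged human SIRT1 (10 nM, E. coli BL21(DE3)) with 0.5 μM Ac-RHKK(Ac)W-NH2 peptide and 120 μM βNAD+, 25 min at 25 °C in HEPES pH 7.5, formic acid stop. OAADPR or deacetylated peptide quantified by mass spectrometry; EC1.5 (50% activity increase over control) and Percent Maximum Activation reported.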

[1] = Trp mass spectrometry assay, EC1.5 = concentration of test compound that results in 150% activation of SIRT1
[2] = concentration giving 150% activation of SIRT1, Trp peptide substrate
[3] = Trp peptide assay, maximum activity relative to control (100%)
[4] = Trp mass spectrometry assay, concentration of test compound giving 150% activation of SIRT1

## O=C(Nc1ccc(F)cn1)N1c2nc(-c3ccnc(N4CCC(F)(F)C4)c3)ccc2N2CC[C@H]1C2 [Example 425]
[1]
  Tryp AVG EC1.5 (μM): A (A (EC1.5<1 μM))

## O=C(Nc1ncc(-c2ccccc2)s1)N1c2nc(-c3cccc(C(F)(F)F)c3)ccc2N2CC[C@H]1C2 [Example 734]
[2]
  Tryp AVG EC1.5 (μM): B (B (EC1.5 1-25 μM))

## O=C(NCCO)c1ccc2c(n1)N(C(=O)Nc1ccccn1)[C@H]1CCN2C1 [(9S)-5-N-(2-hydroxyethyl)-8-N-(pyridin-2-yl)-1,6,8-triazatricyclo[7.2.1.0^{2,7}]dodeca-2(7),3,5-triene-5,8-dicarboxamide]
Trp peptide assay
  TRP Activity (EC1.5): B (B (EC1.5 1-25 μM))
[3]
  Emax: > 150%

## COc1ccc(-c2ccc3c(n2)N(C(=O)Nc2ccccn2)[C@H]2CCN3C2)cn1 [Example 342]
[4]
  Tryp AVG EC1.5 (μM): B (B (EC1.5 1-25 μM))

## CN(C)c1ccnc(NC(=O)N2c3nc(-c4cccc(C(F)(F)F)c4)ccc3N3CC[C@H]2C3)n1 [Example 747]
[2]
  Tryp AVG EC1.5 (μM): A (A (EC1.5<1 μM))

## Cc1cc(-c2ccc3c(n2)N(C(=O)Nc2cncc(OC(C)C)n2)[C@H]2CCN3C2)ccn1 [(9S)-5-(2-methylpyridin-4-yl)-N-[6-(propan-2-yloxy)pyrazin-2-yl]-1,6,8-triazatricyclo[7.2.1.0 {2,7}]dodeca-2(7),3,5-triene-8-carboxamide]
Trp peptide assay
  TRP Activity (EC1.5): A (A (EC1.5<1 μM))
[3]
  Emax: > 150%

## Cc1cc(-c2ccc3c(n2)N(C(=O)NC2CC2)[C@H]2CCN3C2)ccn1 [(9S)-N-cyclopropyl-5-(2-methylpyridin-4-yl)-1,6,8-triazatricyclo[7.2.1.0 {2,7}]dodeca-2,4,6-triene-8-carboxamide]
Trp peptide assay
  TRP Activity (EC1.5): B (B (EC1.5 1-25 μM))
  Emax: > 150%

## COc1cc(-c2ccc3c(n2)N(C(=O)Nc2cnccn2)[C@H]2CCN3C2)cc(C)n1 [(9S)-5-(2-methoxy-6-methylpyridin-4-yl)-N-(pyrazin-2-yl)-1,6,8-triazatricyclo[7.2.1.0 {2,7}]dodeca-2(7),3,5-triene-8-carboxamide]
Trp peptide assay
  TRP Activity (EC1.5): A (A (EC1.5<1 μM))
[3]
  Emax: > 150%

## CC(C)(C)OC(=O)NCc1cnnn1-c1cccc(NC(=O)N2c3nc(-c4cccc(C(F)(F)F)c4)ccc3N3CC[C@H]2C3)c1 [Example 638]
[2]
  Tryp AVG EC1.5 (μM): A (A (EC1.5<1 μM))

## CS(=O)(=O)c1cncc(-c2ccc3c(n2)N(C(=O)Nc2cncc(F)c2)[C@H]2CCCN3C2)c1 [Example 377]
[4]
  Tryp AVG EC1.5 (μM): A (A (EC1.5<1 μM))

## CS(=O)(=O)c1cncc(-c2ccc3c(n2)N(C(=O)Nc2ccccn2)[C@H]2CCCN3C2)c1 [Example 375]
[4]
  Tryp AVG EC1.5 (μM): A (A (EC1.5<1 μM))

## Cc1ccncc1-c1ccc2c(n1)N(C(=O)Nc1cccnc1)[C@H]1CCCN2C1 [Example 516]
[1]
  Tryp AVG EC1.5 (μM): B (B (EC1.5 1-25 μM))

## O=C(Nc1cc(-c2cnco2)ccn1)N1c2nc(-c3cncc(C(F)(F)F)c3)ccc2N2C[C@@H](O)[C@H]1C2 [Example 726]
[2]
  Tryp AVG EC1.5 (μM): B (B (EC1.5 1-25 μM))

## N#Cc1cccc(-c2ccc3c(n2)N(C(=O)Nc2ccccn2)[C@H]2CCCN3C2)c1 [Example 348]
[4]
  Tryp AVG EC1.5 (μM): A (A (EC1.5<1 μM))

## CC(=O)c1sc(NC(=O)N2c3nc(-c4cccc(C(F)(F)F)c4)ccc3N3CC[C@H]2C3)nc1C [Example 75]
Trp peptide substrate, concentration giving 150% activation of SIRT1
  Tryp AVG EC1.5 (μM): A (A (EC1.5<1 μM))

## O=C(c1ccc2c(n1)N(C(=O)Nc1ccccn1)[C@H]1CCN2C1)N1CCC(F)(F)C1 [(9S)-5-[(3,3-difluoropyrrolidin-1-yl)carbonyl]-N-(pyridin-2-yl)-1,6,8-triazatricyclo[7.2.1.0 {2,7}]dodeca-2(7),3,5-triene-8-carboxamide]
Trp peptide assay
  TRP Activity (EC1.5): B (B (EC1.5 1-25 μM))
[3]
  Emax: > 150%

## CCc1ccc(-c2ccc3c(n2)N(C(=O)Nc2cnccn2)[C@H]2CCN3C2)cn1 [(9S)-5-(6-ethylpyridin-3-yl)-N-(pyrazin-2-yl)-1,6,8-triazatricyclo[7.2.1.0 {2,7}]dodeca-2(7),3,5-triene-8-carboxamide]
Trp peptide assay
  TRP Activity (EC1.5): B (B (EC1.5 1-25 μM))
[3]
  Emax: > 150%

## Cc1noc(C)c1-c1cccc(NC(=O)N2c3nc(-c4cccc(C(F)(F)F)c4)ccc3N3CC[C@H]2C3)n1 [Example 657]
[2]
  Tryp AVG EC1.5 (μM): A (A (EC1.5<1 μM))

## O=C(Nc1cncc(F)c1)N1c2nc(N3CC[C@H](F)C3)ccc2S(=O)(=O)N2CC[C@H]1C2 [Example 469]
[1]
  Tryp AVG EC1.5 (μM): C (C (EC1.5>25 μM))

## CN(C)c1cccc(-c2ccc3c(n2)N(C(=O)Nc2ccccn2)[C@H]2CCCN3C2)c1 [Example 386]
[4]
  Tryp AVG EC1.5 (μM): B (B (EC1.5 1-25 μM))

## O=C(Nc1ccncn1)N1c2nc(N3CCCN(CC(F)(F)F)CC3)ccc2N2CCC[C@H]1C2 [Example 491]
[1]
  Tryp AVG EC1.5 (μM): A (A (EC1.5<1 μM))

## C[C@@H]1CN(c2ccc3c(n2)N(C(=O)Nc2cnccn2)[C@H]2CCN3C2)CCO1 [(9S)-5-[(2R)-2-methylmorpholin-4-yl]-N-(pyrazin-2-yl)-1,6,8-triazatricyclo[7.2.1.0 {2,7}]dodeca-2,4,6-triene-8-carboxamide]
Trp peptide assay
  TRP Activity (EC1.5): B (B (EC1.5 1-25 μM))
[3]
  Emax: > 150%

## CC[C@@H]1CN(c2ccc3c(n2)N(C(=O)Nc2cnccn2)[C@H]2CCN3C2)CCO1 [(9S)-5-[(2R)-2-ethylmorpholin-4-yl]-N-(pyrazin-2-yl)-1,6,8-triazatricyclo[7.2.1.0^{2,7}]dodeca-2(7),3,5-triene-8-carboxamide]
Trp peptide assay
  TRP Activity (EC1.5): B (B (EC1.5 1-25 μM))
[3]
  Emax: > 150%

## COc1cc(NC(=O)N2c3nc(-c4cccc(C(F)(F)F)c4)ccc3N3C[C@@H](O)[C@H]2C3)ncn1 [Example 644]
[2]
  Tryp AVG EC1.5 (μM): B (B (EC1.5 1-25 μM))

## O=C(Nc1ccccn1)N1c2nc(-c3ccnc(N4CCC(C(F)(F)F)C4)c3)ccc2N2CC[C@H]1C2 (stereo partly shown) [Example 367]
[4]
  Tryp AVG EC1.5 (μM): A (A (EC1.5<1 μM))

## COc1cc(NC(=O)N2c3nc(-c4cccc(Cl)c4)ccc3N3C[C@@H](O)[C@H]2C3)nc(OC)n1 [Example 680]
[2]
  Tryp AVG EC1.5 (μM): B (B (EC1.5 1-25 μM))

## COc1cc(NC(=O)N2c3nc(-c4ccnc(N5CCC(C(F)(F)F)C5)c4)ccc3N3CC[C@H]2C3)ncn1 (stereo partly shown) [Example 368]
[4]
  Tryp AVG EC1.5 (μM): B (B (EC1.5 1-25 μM))

## O=C(Nc1cccnc1)N1c2nc(N3CCOC[C@@H]3CO)ccc2N2CC[C@H]1C2 [(9S)-5-[(3S)-3-(hydroxymethyl)morpholin-4-yl]-N-(pyridin-3-yl)-1,6,8-triazatricyclo[7.2.1.0 {2,7}]dodeca-2(7),3,5-triene-8-carboxamide]
Trp peptide assay
  TRP Activity (EC1.5): C (C (EC1.5>25 μM))
[3]
  Emax: < 150%

## O=C(Nc1cnccn1)N1c2nc(-c3ccc(Cl)c(C(F)(F)F)c3)ccc2N2CC[C@H]1C2 [Example 435]
[1]
  Tryp AVG EC1.5 (μM): A (A (EC1.5<1 μM))

## O=C(Nc1ccccn1)N1c2nc(N3CCC[C@@H](C(F)(F)F)C3)ccc2N2CC[C@H]1C2 [(9S)-N-(pyridin-2-yl)-5-[(3R)-3-(trifluoromethyl)piperidin-1-yl]-1,6,8-triazatricyclo[7.2.1.0 {2,7}]dodeca-2,4,6-triene-8-carboxamide]
Trp peptide assay
  TRP Activity (EC1.5): B (B (EC1.5 1-25 μM))
[3]
  Emax: > 150%
